The kinase profiling compilation of Christmann-Franck et al. (2016)
Several values for one entry are separate records, joined by “and”; a condition that tells them apart may be missing. Equal entries are not always repeated.

Tests used:
Experiment in all cases: radiometric filter-binding kinase assay, Kinase HotSpot
Conditions in all cases: compound 0.5 µM; ATP 10 µM
[1] = test system: ARAF (human), P10398 [Y301D/Y302D]
CDK3 CCNE1 (human) = CDK3 CCNE1 (human) (UniProt Q00526+P24864)
MAPK3 (human) = MAPK3 (human) (UniProt P27361)
DSTYK (human) = DSTYK (human) (UniProt Q6XUX3)
PRKG1 (human) = PRKG1 (human) (UniProt Q13976)
PRKG1 (human), sequence (Q13976 whole entry, looked up): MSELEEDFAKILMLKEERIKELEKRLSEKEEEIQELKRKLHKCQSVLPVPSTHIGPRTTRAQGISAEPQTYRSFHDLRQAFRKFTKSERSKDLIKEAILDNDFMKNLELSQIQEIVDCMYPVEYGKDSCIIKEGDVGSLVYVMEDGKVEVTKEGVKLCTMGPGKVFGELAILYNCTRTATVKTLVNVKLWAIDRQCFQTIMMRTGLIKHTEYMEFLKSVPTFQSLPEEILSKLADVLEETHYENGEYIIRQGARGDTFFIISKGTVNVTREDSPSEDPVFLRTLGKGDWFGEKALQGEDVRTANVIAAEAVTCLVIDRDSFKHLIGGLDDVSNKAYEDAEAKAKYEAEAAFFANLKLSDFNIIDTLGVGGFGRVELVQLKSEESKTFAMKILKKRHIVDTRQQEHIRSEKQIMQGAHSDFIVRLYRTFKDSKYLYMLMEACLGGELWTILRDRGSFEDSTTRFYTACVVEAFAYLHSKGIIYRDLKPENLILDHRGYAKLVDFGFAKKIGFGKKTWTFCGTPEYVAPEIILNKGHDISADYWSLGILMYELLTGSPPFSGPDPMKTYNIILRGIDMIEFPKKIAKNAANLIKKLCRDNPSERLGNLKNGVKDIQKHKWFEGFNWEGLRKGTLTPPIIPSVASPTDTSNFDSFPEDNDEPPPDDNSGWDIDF

PASK (human) = PASK (human) (UniProt Q96RG2)
CHEK1 (human) = CHEK1 (human) (UniProt O14757)
RPS6KA1 KD1 KD2 (human) = RPS6KA1 KD1 KD2 (human) (UniProt Q15418)
CSNK1G3 (human) = CSNK1G3 (human) (UniProt Q9Y6M4)
RPS6KA2 KD1 KD2 (human) = RPS6KA2 KD1 KD2 (human) (UniProt Q15349)
CSNK1A1 (human) = CSNK1A1 (human) (UniProt P48729)
CSNK1A1 (human), sequence (P48729 whole entry, looked up): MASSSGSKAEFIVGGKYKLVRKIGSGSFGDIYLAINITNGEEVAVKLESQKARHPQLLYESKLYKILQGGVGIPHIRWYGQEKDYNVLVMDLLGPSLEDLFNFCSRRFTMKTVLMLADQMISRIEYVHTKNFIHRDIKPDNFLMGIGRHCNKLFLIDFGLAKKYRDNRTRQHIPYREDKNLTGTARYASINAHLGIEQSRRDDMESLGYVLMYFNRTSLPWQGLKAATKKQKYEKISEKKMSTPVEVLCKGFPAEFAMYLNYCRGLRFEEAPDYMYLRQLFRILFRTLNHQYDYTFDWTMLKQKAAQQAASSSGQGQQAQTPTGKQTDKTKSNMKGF

ITK (human) = ITK (human) (UniProt Q08881)
CLK4 (human) = CLK4 (human) (UniProt Q9HAZ1)
PRKCG (human) = PRKCG (human) (UniProt P05129)
[2] = biological target: JAK1 JH1 catalytic (human) (UniProt P23458)
TYRO3 (human) = TYRO3 (human) (UniProt Q06418)
PDGFRB (human) = PDGFRB (human) (UniProt P09619)
PDGFRB (human), sequence (P09619 whole entry, looked up): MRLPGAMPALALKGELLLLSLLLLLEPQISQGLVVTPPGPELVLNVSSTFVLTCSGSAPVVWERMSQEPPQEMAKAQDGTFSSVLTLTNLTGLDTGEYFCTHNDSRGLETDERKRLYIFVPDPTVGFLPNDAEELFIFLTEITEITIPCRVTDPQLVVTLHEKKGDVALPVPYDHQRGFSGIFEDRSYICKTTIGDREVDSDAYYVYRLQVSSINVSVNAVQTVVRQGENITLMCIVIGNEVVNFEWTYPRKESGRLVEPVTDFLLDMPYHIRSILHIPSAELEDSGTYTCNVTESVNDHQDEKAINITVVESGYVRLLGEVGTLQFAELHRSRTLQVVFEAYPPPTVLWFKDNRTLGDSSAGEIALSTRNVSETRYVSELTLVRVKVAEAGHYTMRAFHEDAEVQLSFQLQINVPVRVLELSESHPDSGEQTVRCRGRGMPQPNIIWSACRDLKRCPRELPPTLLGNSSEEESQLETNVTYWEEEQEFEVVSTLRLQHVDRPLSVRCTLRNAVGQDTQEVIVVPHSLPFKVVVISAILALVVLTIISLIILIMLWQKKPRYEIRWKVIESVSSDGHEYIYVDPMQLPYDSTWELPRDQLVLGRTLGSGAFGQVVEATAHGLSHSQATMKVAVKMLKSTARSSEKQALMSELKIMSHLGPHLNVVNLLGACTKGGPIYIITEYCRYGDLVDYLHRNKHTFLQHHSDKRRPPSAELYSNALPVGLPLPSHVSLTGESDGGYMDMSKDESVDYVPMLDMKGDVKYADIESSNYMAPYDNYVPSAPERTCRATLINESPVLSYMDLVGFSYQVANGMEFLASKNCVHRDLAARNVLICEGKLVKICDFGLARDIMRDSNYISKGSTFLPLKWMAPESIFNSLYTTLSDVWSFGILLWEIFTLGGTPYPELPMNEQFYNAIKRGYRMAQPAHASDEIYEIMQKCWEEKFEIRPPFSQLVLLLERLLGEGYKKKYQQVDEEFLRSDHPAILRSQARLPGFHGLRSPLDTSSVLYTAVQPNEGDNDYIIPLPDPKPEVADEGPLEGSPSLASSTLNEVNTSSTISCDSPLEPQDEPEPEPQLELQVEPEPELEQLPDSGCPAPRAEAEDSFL

SRC (human) = SRC (human) (UniProt P12931)
EPHA8 (human) = EPHA8 (human) (UniProt P29322)
MAPK8 (human) = MAPK8 (human) (UniProt P45983)
NUAK2 (human) = NUAK2 (human) (UniProt Q9H093)
BRAF (human) = BRAF (human) (UniProt P15056)
PRKCZ (human) = PRKCZ (human) (UniProt Q05513)
TAOK1 (human) = TAOK1 (human) (UniProt Q7L7X3)
PKN1 (human) = PKN1 (human) (UniProt Q16512)
STK25 (human) = STK25 (human) (UniProt O00506)
INSRR (human) = INSRR (human) (UniProt P14616)
PRKCE (human) = PRKCE (human) (UniProt Q02156)
ROS1 (human) = ROS1 (human) (UniProt P08922)
ROS1 (human), sequence (P08922 whole entry, looked up): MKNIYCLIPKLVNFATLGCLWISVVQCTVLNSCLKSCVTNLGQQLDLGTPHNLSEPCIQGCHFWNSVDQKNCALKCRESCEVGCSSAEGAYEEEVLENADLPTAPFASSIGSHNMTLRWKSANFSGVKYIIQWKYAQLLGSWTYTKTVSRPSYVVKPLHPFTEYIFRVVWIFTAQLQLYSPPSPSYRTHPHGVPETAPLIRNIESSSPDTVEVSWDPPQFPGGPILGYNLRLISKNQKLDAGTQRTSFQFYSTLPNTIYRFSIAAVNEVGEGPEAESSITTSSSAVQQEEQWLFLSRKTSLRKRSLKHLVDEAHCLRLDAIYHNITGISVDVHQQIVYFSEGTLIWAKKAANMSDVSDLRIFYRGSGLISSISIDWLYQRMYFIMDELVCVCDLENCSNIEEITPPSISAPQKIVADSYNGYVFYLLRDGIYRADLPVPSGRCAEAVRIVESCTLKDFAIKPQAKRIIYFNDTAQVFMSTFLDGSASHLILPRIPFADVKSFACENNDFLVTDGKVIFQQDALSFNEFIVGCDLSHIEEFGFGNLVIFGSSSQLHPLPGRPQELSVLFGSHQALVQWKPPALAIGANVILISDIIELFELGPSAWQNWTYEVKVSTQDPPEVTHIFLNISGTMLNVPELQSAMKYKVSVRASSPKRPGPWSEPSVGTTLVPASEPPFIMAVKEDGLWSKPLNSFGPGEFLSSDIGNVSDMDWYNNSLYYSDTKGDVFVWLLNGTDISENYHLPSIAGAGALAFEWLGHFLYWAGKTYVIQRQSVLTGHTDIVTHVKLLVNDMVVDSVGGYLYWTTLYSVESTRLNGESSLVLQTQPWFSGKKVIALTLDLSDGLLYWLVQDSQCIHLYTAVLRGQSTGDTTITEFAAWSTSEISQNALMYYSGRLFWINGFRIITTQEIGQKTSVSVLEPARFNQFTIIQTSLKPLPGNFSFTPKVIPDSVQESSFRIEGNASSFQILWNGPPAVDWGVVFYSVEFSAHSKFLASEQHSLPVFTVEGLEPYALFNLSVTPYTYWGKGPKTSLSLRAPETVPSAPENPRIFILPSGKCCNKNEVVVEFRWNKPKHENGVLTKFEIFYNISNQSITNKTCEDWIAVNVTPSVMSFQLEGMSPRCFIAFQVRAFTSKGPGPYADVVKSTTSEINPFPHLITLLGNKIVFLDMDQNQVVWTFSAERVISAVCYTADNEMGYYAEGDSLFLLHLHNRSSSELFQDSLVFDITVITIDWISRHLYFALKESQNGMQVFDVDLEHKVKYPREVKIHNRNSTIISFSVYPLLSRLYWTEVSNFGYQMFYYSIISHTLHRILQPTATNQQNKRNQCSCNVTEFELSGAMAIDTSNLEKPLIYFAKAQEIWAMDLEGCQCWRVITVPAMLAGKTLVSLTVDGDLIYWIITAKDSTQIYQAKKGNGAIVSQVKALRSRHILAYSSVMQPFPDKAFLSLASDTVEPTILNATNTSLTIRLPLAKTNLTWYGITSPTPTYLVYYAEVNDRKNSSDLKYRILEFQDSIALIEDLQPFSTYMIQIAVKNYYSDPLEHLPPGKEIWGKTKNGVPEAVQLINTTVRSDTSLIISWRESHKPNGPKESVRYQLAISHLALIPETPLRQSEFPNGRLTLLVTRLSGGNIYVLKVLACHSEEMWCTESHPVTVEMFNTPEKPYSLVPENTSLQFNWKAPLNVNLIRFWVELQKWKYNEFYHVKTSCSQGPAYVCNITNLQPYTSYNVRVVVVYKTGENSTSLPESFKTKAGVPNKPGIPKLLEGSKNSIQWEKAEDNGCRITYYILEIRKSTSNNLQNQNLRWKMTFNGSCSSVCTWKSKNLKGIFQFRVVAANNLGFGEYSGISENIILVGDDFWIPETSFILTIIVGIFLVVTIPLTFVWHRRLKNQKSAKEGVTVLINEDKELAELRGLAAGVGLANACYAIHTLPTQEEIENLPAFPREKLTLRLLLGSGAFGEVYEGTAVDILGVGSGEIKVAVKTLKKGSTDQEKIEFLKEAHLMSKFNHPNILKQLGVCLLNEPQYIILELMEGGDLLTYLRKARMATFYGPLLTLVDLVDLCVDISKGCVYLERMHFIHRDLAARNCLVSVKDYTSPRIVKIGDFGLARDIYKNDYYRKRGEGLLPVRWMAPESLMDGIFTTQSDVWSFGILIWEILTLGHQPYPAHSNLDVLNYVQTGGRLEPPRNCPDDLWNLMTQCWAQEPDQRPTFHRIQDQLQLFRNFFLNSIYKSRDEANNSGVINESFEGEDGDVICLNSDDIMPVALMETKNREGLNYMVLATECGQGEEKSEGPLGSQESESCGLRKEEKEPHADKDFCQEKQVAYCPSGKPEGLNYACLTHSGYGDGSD

EGFR (human) = EGFR (human) (UniProt P00533)
CAMK2B (human) = CAMK2B (human) (UniProt Q13554)
CAMK2B (human), sequence (Q13554 whole entry, looked up): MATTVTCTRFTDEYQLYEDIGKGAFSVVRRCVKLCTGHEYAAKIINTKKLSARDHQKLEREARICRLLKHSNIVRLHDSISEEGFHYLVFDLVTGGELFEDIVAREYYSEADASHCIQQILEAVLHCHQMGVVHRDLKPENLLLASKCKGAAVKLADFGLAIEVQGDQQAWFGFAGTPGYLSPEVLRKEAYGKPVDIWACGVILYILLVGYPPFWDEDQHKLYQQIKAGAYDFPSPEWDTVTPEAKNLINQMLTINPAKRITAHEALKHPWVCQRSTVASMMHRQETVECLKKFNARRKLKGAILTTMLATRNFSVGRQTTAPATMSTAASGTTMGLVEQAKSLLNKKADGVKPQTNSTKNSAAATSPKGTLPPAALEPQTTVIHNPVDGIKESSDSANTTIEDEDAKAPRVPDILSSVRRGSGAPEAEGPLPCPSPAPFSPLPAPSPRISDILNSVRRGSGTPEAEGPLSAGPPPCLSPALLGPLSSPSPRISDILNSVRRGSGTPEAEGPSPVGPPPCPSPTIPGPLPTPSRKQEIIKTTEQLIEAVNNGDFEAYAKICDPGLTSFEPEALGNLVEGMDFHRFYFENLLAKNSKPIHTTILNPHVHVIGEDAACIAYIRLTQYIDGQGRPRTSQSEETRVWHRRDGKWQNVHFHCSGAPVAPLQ

CSNK2A2 (human) = CSNK2A2 (human) (UniProt P19784)
DYRK2 (human) = DYRK2 (human) (UniProt Q92630)
MARK4 (human) = MARK4 (human) (UniProt Q96L34)

Row | SMILES | residual activity [1] | residual activity (CDK3 CCNE1 (human)) | residual activity (MAPK3 (human)) | residual activity (DSTYK (human)) | residual activity (PRKG1 (human)) | residual activity (PASK (human)) | residual activity (CHEK1 (human)) | residual activity (RPS6KA1 KD1 KD2 (human)) | residual activity (RPS6KA2 KD1 KD2 (human)) | residual activity (CSNK1A1 (human)) | residual activity (ITK (human)) | residual activity (CLK4 (human)) | residual activity (PRKCG (human)) | residual activity [2] | residual activity (TYRO3 (human)) | residual activity (PDGFRB (human)) | residual activity (SRC (human)) | residual activity (EPHA8 (human)) | residual activity (MAPK8 (human)) | residual activity (NUAK2 (human)) | further results
1 | O=C1Nc2cc(Br)ccc2/C1=C1/Nc2ccccc2/C1=N\O | 99.8% | 25.2% | 83.3% | 102% | 89% and 93.6% | 97.9% | 57.1% | 47.2% | 33.7% | 95.1% | 46.6% | 97% | 90.9% | 76.2% | 81.6% | 35.2% | 7.64% | 97.6% | 98.7% | 73.4% | residual activity (CSNK1G3 (human)): 78.3%; residual activity (BRAF (human)): 98.2%; residual activity (PRKCZ (human)): 100%; residual activity (TAOK1 (human)): 98.5%; residual activity (PKN1 (human)): 82.2%; residual activity (STK25 (human)): 96.3%; residual activity (INSRR (human)): 81%; residual activity (PRKCE (human)): 92.4%; residual activity (ROS1 (human)): 82%; residual activity (EGFR (human)): 89%; residual activity (CAMK2B (human)): 65.8%; residual activity (CSNK2A2 (human)): 63.1%
2 | Nc1nc(Nc2ccc(S(N)(=O)=O)cc2)nn1C(=O)c1c(F)cccc1F | 93.1% | 32.4% | 108% | 86.2% | 104% and 86.1% | 91.1% | 76.3% | 42.1% | 42.2% | 95.1% | 105% | 41.6% | 81.3% | 5.19% | 98.6% | 89.1% | 76.3% | 109% | 85.9% | 34% | residual activity (DYRK2 (human)): 112%; residual activity (MARK4 (human)): 48%; residual activity (BRAF (human)): 55%; residual activity (PRKCZ (human)): 99.9%; residual activity (TAOK1 (human)): 18.8%; residual activity (PKN1 (human)): 89.7%; residual activity (STK25 (human)): 82.3%; residual activity (INSRR (human)): 93.8%; residual activity (PRKCE (human)): 97.2%; residual activity (ROS1 (human)): 39.5%; residual activity (EGFR (human)): 97%; residual activity (CAMK2B (human)): 99.7%; residual activity (CSNK2A2 (human)): 97.5%
